Laboratory results published in US20110201577A1 (published 2011).

Row | SMILES | melting point
1 | Cc1ccc(S(=O)(=O)N[C@H]2[C@@H]3OC(C)(C)O[C@@H]3C(Br)=C[C@H]2N=[N+]=[N-])cc1 | 119 to 120 °C
2 | CCOC(=O)C1=C[C@@H](OC(CC)CC)[C@H](NC(C)=O)[C@@H]2OC(C)(C)O[C@H]12 | 112 to 115 °C
3 | CC(=O)N1[C@@H]2[C@@H]3OC(C)(C)O[C@@H]3C(Br)=C[C@@H]21 | 128 °C
4 | CCOC(=O)[C@@]12C=C[C@H]([C@@H]3OC(C)(C)O[C@@H]31)N(C(C)=O)O2 | 89 to 90 °C
5 | CC(=O)N[C@H]1C=C(Br)[C@H]2OC(C)(C)O[C@H]2[C@@H]1Br | 181 °C
6 | CCOC(=O)C1=C[C@@H](OS(C)(=O)=O)[C@@H](NC(C)=O)[C@@H]2OC(C)(C)O[C@H]12 | 163 to 165 °C
7 | CCOC(=O)C1=CC=C[C@H](O)[C@@H]1O | 48 °C
8 | CCOC(=O)C1=C[C@@H](OC(CC)CC)[C@H](NC(C)=O)[C@H](O)[C@@H]1O (stereo in doubt) | 154 °C
9 | CCOC(=O)C1C[C@@H](OS(C)(=O)=O)[C@@H](NC(C)=O)[C@@H]2OC(C)(C)O[C@H]12 (stereo partly drawn) | 101 to 102 °C
10 | Cc1ccc(S(=O)(=O)N[C@H]2[C@@H]3OC(C)(C)O[C@@H]3C(Br)=C[C@H]2NC(=O)OC(C)(C)C)cc1 | 153 to 154 °C
11 | CCOC(=O)C1=C[C@@H]2[C@H]([C@@H]3OC(C)(C)O[C@H]13)N2S(=O)(=O)c1ccc(C)cc1 (stereo partly drawn) | 106 to 107 °C
12 | CCOC(=O)C1C[C@@H](O)[C@@H](NC(C)=O)[C@@H]2OC(C)(C)O[C@H]12 (stereo partly drawn) | 156 to 158 °C
